This passage reports IC50 results from US20210094973A1, “HETEROCYCLIC COMPOUNDS” (Hoffmann-La Roche Inc., priority 2019, published 2021).

For orientation: IC50 means the point on the concentration scale where inhibition reaches its midpoint.

The assay has as its target T1, MAGL (Homo sapiens, UniProt Q99685).
T1 sequence (Q99685 1-303): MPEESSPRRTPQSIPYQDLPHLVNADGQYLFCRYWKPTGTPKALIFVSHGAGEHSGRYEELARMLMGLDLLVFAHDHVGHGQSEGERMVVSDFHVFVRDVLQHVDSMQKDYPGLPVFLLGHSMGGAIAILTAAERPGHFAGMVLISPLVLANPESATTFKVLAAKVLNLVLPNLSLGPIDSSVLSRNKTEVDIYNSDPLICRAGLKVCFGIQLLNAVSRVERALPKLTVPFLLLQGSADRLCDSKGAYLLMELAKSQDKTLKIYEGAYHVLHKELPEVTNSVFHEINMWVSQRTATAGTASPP
Nature of the assay: 2-AG assay (MAGL inhibitory activity, hydrolysis of 2-arachidonoylglycerol followed by mass spectrometry). The format is biochemical. The note with it: 15 min preincubation at RT, 8 μM 2-arachidonoylglycerol, 30 min at RT, arachidonic acid by MS.

In turn, `Cn1ncc2cc(C3CN(C(=O)N4CC[C@@H]5OCC(=O)N[C@@H]5C4)C3)ccc21` [Example 17, (4aR,8aS)-6-(3-(1-Methyl-1H-indazol-5-yl)azetidine-1-carbonyl)hexahydro-2H-pyrido[4,3-b][1,4]oxazin-3(4H)-one] returned an IC50 of 168 nM. This lies in the sub-micromolar range.
